From PubChem BioAssay (NCI) come the findings set out here.

Test systems include 786-0 renal; ACHN renal; HCT-116 colon; NCI-H460 lung; RXF 393 renal; SF-539 CNS; SK-MEL-28 melanoma; SW-620 colon; UO-31 renal.
Holding throughout (experiment): DTP human tumour cell line panel, 48 h

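Interpolation was linear, between the two tested concentrations surrounding the appropriate level; five concentrations were tested over 48 hours in 96-well plates. TGI is the concentration that stops growth completely.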

For the compound `CC(C)c1cc(C(C)C)c(B(c2ccccc2)c2ccccc2)c(C(C)C)c1Br`, the TGI in the assay on 786-0 renal, in the assay with ACHN renal, in the assay on HCT-116 colon, in the assay on NCI-H460 lung, with RXF 393 renal and with SF-539 CNS was more than 100 µM each time. Moreover, the TGI with SK-MEL-28 melanoma, with SW-620 colon and with UO-31 renal was more than 100 µM in each case.

In the case of `CC(C)(CO)Nc1c(O)c2c(c(O)c1Cl)C(=O)C=CC2=O`, the TGI with 786-0 renal was determined as 2.85 µM; in the assay on ACHN renal, 3.08 µM; in the assay on HCT-116 colon it was 3.07 µM; in the assay with NCI-H460 lung, 4.28 µM; with RXF 393 renal it was 3.31 µM; in the assay on SF-539 CNS, 2.7 µM. Besides, the TGI in the assay with SK-MEL-28 melanoma was 3.32 µM; in the assay on SW-620 colon it was 1.37 µM; in the assay with UO-31 renal it was 2.88 µM.

On to `O=c1[nH]c(=O)c2c([nH]1)[nH]c1ccccc12`, for which the concentration for total growth inhibition (TGI) with 786-0 renal, with ACHN renal, in the assay on HCT-116 colon, in the assay with RXF 393 renal, in the assay with SF-539 CNS and in the assay with SW-620 colon was more than 100 µM in each case. In the assay with UO-31 renal, this compound displayed a TGI of more than 100 µM.

Take `CC1=NNC(N)=N/C1=C\C(Sc1ccc(Cl)cc1)c1ccc(Cl)cc1Cl` (centres undefined): the TGI in the assay with 786-0 renal is 75.9 µM; in the assay on ACHN renal, 29.1 µM; in the assay on HCT-116 colon, more than 65 µM; in the assay with NCI-H460 lung it was 29.3 µM; with RXF 393 renal it was 50.9 µM; with SK-MEL-28 melanoma it was 55.7 µM. In addition, the TGI in the assay with SW-620 colon was found to be 59.9 µM; in the assay on UO-31 renal, 27 µM.

In the case of `COc1ccc(C2CCc3c(cnc4nc(N)nc(N)c34)C2)cc1` (centres undefined), the TGI in the assay with 786-0 renal was 26.8 µM; in the assay on ACHN renal, 51 µM; with HCT-116 colon it was more than 100 µM; in the assay on NCI-H460 lung, more than 100 µM; in the assay with RXF 393 renal, 42.6 µM; with SF-539 CNS, more than 100 µM. Also, the TGI in the assay on SK-MEL-28 melanoma and with SW-620 colon was more than 100 µM each time.

`N#CC(NNC(=O)c1c(Cl)c(Cl)c(Cl)c(Cl)c1-c1nc2ccc(C(=O)c3ccccc3)cc2[nH]1)c1cccc(Oc2ccccc2)c1` (centres undefined): the TGI was 51.4 µM with 786-0 renal; 88.8 µM with ACHN renal; more than 100 µM with HCT-116 colon; 55.5 µM with RXF 393 renal; 43.4 µM with SF-539 CNS; 74.1 µM in the assay with SK-MEL-28 melanoma. The TGI with SW-620 colon and in the assay with UO-31 renal was more than 100 µM each time.

`Nc1nc(Cl)cc(NCC2CC(O)(CO)C2)n1` (centres undefined): the TGI in the assay on 786-0 renal, with ACHN renal, in the assay on HCT-116 colon, in the assay on NCI-H460 lung, in the assay with RXF 393 renal and in the assay with SF-539 CNS was more than 100 µM in each case. In addition, the TGI with SK-MEL-28 melanoma, in the assay with SW-620 colon and with UO-31 renal was more than 100 µM throughout.

For `Clc1ccc(C2=NNC(c3cccc(Cl)c3)C2)cc1` (centres undefined), the total growth inhibition concentration (TGI) in the assay with 786-0 renal was 92.7 µM; with HCT-116 colon it was more than 100 µM; with NCI-H460 lung it was more than 100 µM; in the assay with RXF 393 renal it was more than 100 µM; with SF-539 CNS, more than 100 µM; in the assay with SW-620 colon, 74.9 µM. For the same compound, the TGI in the assay with UO-31 renal was determined as 21.4 µM.

Turning to `CC1CC/C(=C\c2ccc(F)cc2)C2=C1C(c1ccc(F)cc1)NC(=S)N2` (centres undefined), the TGI with 786-0 renal, in the assay with ACHN renal, in the assay on HCT-116 colon, with NCI-H460 lung, in the assay with RXF 393 renal and in the assay on SF-539 CNS was more than 100 µM in each case. For the same compound, the TGI with SK-MEL-28 melanoma, in the assay with SW-620 colon and in the assay on UO-31 renal was more than 100 µM in each case.

For the compound `O=C(O)CCC(NC(=O)/C(=C/c1ccccc1)NC(=O)c1ccccc1)C(=O)O` (centres undefined), the TGI with 786-0 renal, in the assay on ACHN renal, in the assay on HCT-116 colon, in the assay on NCI-H460 lung, in the assay on RXF 393 renal and in the assay with SF-539 CNS was more than 100 µM each time. Further, the concentration for total growth inhibition (TGI) with SK-MEL-28 melanoma, in the assay on SW-620 colon and with UO-31 renal was more than 100 µM each time.

Regarding `Nc1nn2cc(-c3ccccc3)[n+](CC(=O)c3ccccc3)c2s1`, the TGI in the assay on 786-0 renal is 40.2 µM; with ACHN renal, more than 100 µM; in the assay on HCT-116 colon it was 30.3 µM; with NCI-H460 lung, more than 100 µM; in the assay on RXF 393 renal, 62.4 µM; with SF-539 CNS, 42.3 µM. Also, the TGI in the assay on SW-620 colon was 55.9 µM; in the assay with UO-31 renal it was more than 100 µM.

Consider `CCOC(=O)CCN1C(=O)c2c(NC(=O)C(=O)O)cccc2S1(=O)=O`, for which the TGI in the assay on 786-0 renal, with ACHN renal, with HCT-116 colon, in the assay on NCI-H460 lung, in the assay on RXF 393 renal and with SK-MEL-28 melanoma was more than 100 µM in each case. The TGI in the assay on SW-620 colon and with UO-31 renal was more than 100 µM in each case.

As for `C[C@@H]1CC(=O)[C@@]2(C)[C@](O)(CCC3O[C@]32C)[C@@]12CC(c1ccoc1)OC2=O` (some centres undefined), the TGI with 786-0 renal was more than 100 µM; with ACHN renal, more than 100 µM; in the assay on HCT-116 colon it was more than 100 µM; in the assay with NCI-H460 lung, more than 100 µM; with RXF 393 renal, 88.6 µM; in the assay on SF-539 CNS, more than 100 µM. The TGI in the assay with SK-MEL-28 melanoma, with SW-620 colon and in the assay on UO-31 renal was more than 100 µM in each case.

With `Cc1cccc(-c2cc(=O)c3cc(C)cnc3[nH]2)c1`, the concentration for total growth inhibition (TGI) in the assay with 786-0 renal was more than 100 µM; in the assay with ACHN renal it was more than 100 µM; in the assay with HCT-116 colon it was 11.4 µM; in the assay with NCI-H460 lung, 13.1 µM; with RXF 393 renal it was more than 100 µM; with SF-539 CNS it was 2.62 µM. Besides, the TGI in the assay on SK-MEL-28 melanoma and in the assay on UO-31 renal was more than 100 µM in each case.

Consider `Cc1cnc2cc(Cl)ccc2c1SCC(=O)O`, for which the TGI with 786-0 renal, with ACHN renal, in the assay with HCT-116 colon, with NCI-H460 lung, with RXF 393 renal and with SK-MEL-28 melanoma was more than 100 µM each time. In addition, the TGI in the assay with SW-620 colon and with UO-31 renal was more than 100 µM each time.
